In ChEMBL document CHEMBL2086339 (J Med Chem, 2012):
Converted amounts (≈) assume the structure as drawn.

Assays:
[1] = Metabolic stability in rat plasma assessed as compound remaining at 250 uM after 3 hrs by LC-ESI-MS-MS analysis; type: ADME, cell-free; details: read-out: Stability
[2] = Ratio of drug level in brain to plasma in Long Evans rat at 10 mg/kg, po; type: ADME, organism-based; parameters: dose 10 mg/kg, route oral; details: read-out: BPR
[3] = Cmax in Long Evans rat at 20 mg/kg, po; type: ADME, organism-based; parameters: dose 20 mg/kg, route oral; details: in vivo
[4] = Solubility of the compound at pseudo-thermodynamic equilibrium after 24 hrs by UPLC/UV/TOF-MS analysis at pH 7.4; type: physicochemical; details: buffer
[5] = Intrinsic clearance in rat liver microsomes assessed per mg of protein at 1 uM by UPLC/TOF-MS analysis; type: ADME, Microsome; details: read-out: CLH
[6] = AUC (0 to infinity) in Long Evans rat at 20 mg/kg, po; type: ADME, organism-based; parameters: time infinity, dose 20 mg/kg, route oral; details: plasma
[7] = Cmax in Long Evans rat brain at 10 mg/kg, po; type: ADME, organism-based; parameters: dose 10 mg/kg, route oral
[8] = Oral bioavailability in Long Evans rat at 20 mg/kg; type: ADME, organism-based; details: in vivo
[9] = Tmax in Long Evans rat at 20 mg/kg, po; type: ADME, organism-based; parameters: dose 20 mg/kg, route oral; details: in vivo

SMILES | solubility thermodynamic at 24 h [4] | further results
COc1ccc(-c2cc(NC(=O)CCCCN3CCCN(C(C)=O)CC3)[nH]n2)cc1 | 170 µM (≈ 70.3 µg/mL) | remaining at 3 h, 250 µM [1]: 55%; Kp [2]: 0.38; Cmax [3]: 180 nM; microsomal CLint at 1 µM [5]: 13 µL/min/mg; AUC(0-inf) [6]: 1.37 µM·h; Cmax [7]: 3.7 ng/g; bioavailability [8]: 12%; Tmax [9]: 49.8 min
COc1ccc(-c2n[nH]c(NC(=O)CCCCN3CCCN(C(C)=O)CC3)c2C)cc1 | 151 µM (≈ 64.6 µg/mL) | –
COc1ccc(-c2cc(NC(=O)C(C)CCCN3CCCN(C(C)=O)CC3)[nH]n2)cc1 (stereo unspecified) | 128 µM (≈ 54.7 µg/mL) | remaining at 3 h, 250 µM [1]: > 99%
COc1ccc(-c2c[nH]c(NC(=O)CCCCN3CCCN(C(C)=O)CC3)n2)cc1 | 193 µM (≈ 79.8 µg/mL) | –
O=C(CCCCN1CCCCC1)Nc1cc(-c2ccc(Cl)cc2)n[nH]1 | 182 µM (≈ 65.7 µg/mL) | –
COc1ccc(-c2cc(NC(=O)CCCCN3CCCCC3)[nH]n2)cc1 | 219 µM (≈ 78.1 µg/mL) | –
COc1cccc(-c2cc(NC(=O)CCCCN3CCCCC3)[nH]n2)c1 | 213 µM (≈ 75.9 µg/mL) | –
COc1ccccc1-c1cc(NC(=O)CCCCN2CCCCC2)[nH]n1 | 178 µM (≈ 63.5 µg/mL) | –
COc1ccc(-c2n[nH]c(NC(=O)CCCCN3CCCCC3)c2C)cc1 | 188 µM (≈ 69.7 µg/mL) | –
O=C(CCCCN1CCCCC1)Nc1cc(-c2ccc(F)cc2)n[nH]1 | 237 µM (≈ 81.6 µg/mL) | –
O=C(CCCCN1CCCCC1)Nc1cc(-c2ccc(Br)cc2)n[nH]1 | 144 µM (≈ 58.4 µg/mL) | –
O=C(CCCCN1CCCCC1)Nc1cc(-c2ccncc2)n[nH]1 | 226 µM (≈ 74 µg/mL) | –
O=C(CCCCN1CCCCC1)Nc1cc(-c2ccc(C(F)(F)F)cc2)n[nH]1 | 157 µM (≈ 61.9 µg/mL) | –
O=C(CCCCN1CCCCC1)Nc1cc(-c2ccco2)n[nH]1 | 250 µM (≈ 79.1 µg/mL) | –
COc1ccc(-c2cc(NC(=O)CCCCN3CCC(C)CC3)n[nH]2)cc1 | 198 µM (≈ 73.4 µg/mL) | –
COc1ccc(-c2cc(NC(=O)CCCCN3CCOCC3)[nH]n2)cc1 | 176 µM (≈ 63.1 µg/mL) | –
COc1ccc(-c2cc(NC(=O)CCCCN3CCNC(=O)C3)[nH]n2)cc1 | 92 µM (≈ 34.2 µg/mL) | –
COc1ccc(-c2cc(NC(=O)CCCCN3CCC(C(N)=O)CC3)[nH]n2)cc1 | 184 µM (≈ 73.5 µg/mL) | –
COc1ccc(-c2cc(NC(=O)CCCCN3CCCCCC3)n[nH]2)cc1 | 133 µM (≈ 49.3 µg/mL) | –
COc1ccc(-c2cc(NC(=O)CCCCN3CCCOCC3)[nH]n2)cc1 | 176 µM (≈ 65.6 µg/mL) | –
COc1ccc(-c2cc(NC(=O)CCCCN3CCCNCC3)[nH]n2)cc1 | 153 µM (≈ 56.8 µg/mL) | –
COc1ccc(-c2cc(NC(=O)CCCCN3CCNC(=O)CC3)[nH]n2)cc1 | 117 µM (≈ 45.1 µg/mL) | –
